Assay results reported in patent US20210128685A1, “PEDF-DERIVED PEPTIDES FOR PROMOTING MEIBOMIAN GLAND REGENERATION AND USES THEREOF” (BRIM Biotechnology, Inc., priority 2018, published 2021).

Key:
limbus stem cells = settings: rabbit; cited from earlier work
[1] = Alanine scanning and variants of the 29-mer (activities)
Meibomian gland = assay: Eyelid whole mount Oil Red O (ORO) staining, MG size; type: in vivo, C57BL/6 mice; settings: old mice, weekly subconjunctival injection, at one month
Procedure: (§1) Twelve to fifteen (12-15) months old C57BL/6 mice and 4-8 months old C57BL/6 mice were used. These mice were kept in standard pathogen-free environment at 24° C.±1° C., relatively humidity 60%±10%. All procedures were approved by the Mackay Memorial Hospital Review Board for animal investigation and were conducted in accordance with the ARVO statement for the Use of Animals in Ophthalmic and Vision Research. Mice were anesthetized by an intraperitoneal injection of a mixture of zoletil (6 mg/kg) and xylazine (3 mg/kg). One drop of 0.5% proparacaine hydrochloride (Alcaine; Alcon, Fort Worth, Tex., USA) was given before any ocular procedure.
(§2) The 29-mer was reconstituted in DMSO to a final concentration 100 μM. A separated dose of 10 μl of 29-mer (100 μM) mixed with 90 μl of phosphate-buffered saline (PBS) was injected into the upper and lower conjunctival fornix. 10 μl of DMSO mixed with 90 μl of PBS served as a control. […]
At one month, upper eyelids were subjected to whole mount Oil Red O (ORO) staining. The size of MG tissue in whole mount was quantified using the color range selection and histogram tool with a computer-assisted image analyzer (Adobe Photoshop 7.0) and was calculated in Pixels. […]

[2] = Tear film break-up time (TBUT); type: in vivo, C57BL/6 mice; settings: old mice, weekly subconjunctival injection up to 4 weeks; week 1 to week 4, difference significant up to 8 weeks
Procedure: as §1, §2
To avoid the reduced lipids secretion resulting from no eye blinking under long-term anesthesia, Tear break-up time (TBUT)^19,20 was performed immediately after mice were anesthetized. […] After three compulsory blinks, TBUT was recorded in […] under a slit-lamp with a blue-free barrier filter. […]

[3] = system: myogenic stem cells and C2C12 myoblasts; settings: cited from earlier work
[4] = system: acinar progenitor cells (p63-expressing cells); assay: Immunohistochemistry of stem cell marker p63 in upper eyelids 5 days after single treatment; type: in vivo, C57BL/6 mice; settings: aging (old) mice
Procedure: as §1, §2
Immunohistochemistry (IHC) was performed as previously described and modified.^22 Formalin-fixed, paraffin-embedded, mice specimens were deparaffinized in xylene and rehydrated in a graded series of ethanol concentrations. […] Quantification was estimated based on high quality images captured using a Pannoramic digital slide scanners (3Dhistech Ltd. Budapest, Hungary).

acinar progenitor cells = assay: 5-Bromo-2'-deoxyuridine (BrdU) incorporation assay in upper eyelids after subconjunctival injection; type: in vivo, C57BL/6 mice; settings: for BrdU-positive cells per acinus: 24 hours after subconjunctival injection; for BrdU-positive cells in acinar base (cell proliferation): day 5 after single subconjunctival injection
Procedure: as §1
(§3) The 29-mer was reconstituted in DMSO to a final concentration 100 μM. A separated dose of 10 μl of 29-mer (100 μM) mixed with 90 μl of phosphate-buffered saline (PBS) was injected into the upper and lower conjunctival fornix. 10 μl of DMSO mixed with 90 μl of PBS served as a control. To evaluate the effect of 29-mer on tear film break-up time (TBUT) and tear secretion of old mice, subconjunctival injection of 29-mer was introduced weekly till one month and then followed up for two months.
After subconjunctival injection of 29-mer or DMSO, 5-Bromo-2′deoxyuridine (BrdU) 0.1 mg/g of body weight was injected intraperitoneally. The upper eyelids were harvested at 24 hours to evaluate the proliferation of acinar progenitor cells. To study the mitosis of cells, mice were administered by intraperitoneal injections of BrdU daily for 3 days, and the upper eyelids were harvested at day 5. Before performing immunohistochemistry of BrdU, slides were treated with 1 N HCL at 95° C. for 20 minutes.
Immunohistochemistry (IHC) was performed as previously described and modified.^22 Formalin-fixed, paraffin-embedded, mice specimens were deparaffinized in xylene and rehydrated in a graded series of ethanol concentrations. Slides were blocked with 10% goat serum for 60 minutes and then incubated with primary antibody against BrdU (1:800 dilution), PEDF (1:50), or p63 (1:200) overnight at 4° C. The slides were subsequently incubated with the appropriate peroxidase-labeled goat immunoglobulin (1:500 dilution; Chemicon, Temecula, Calif.) for 20 minutes and then incubated with chromogen substrate (3,3-diaminobenzidine) for 2 minutes before counterstaining with hematoxylin. Quantification was estimated based on high quality images captured using a Pannoramic digital slide scanners (3Dhistech Ltd. Budapest, Hungary).

meibocytes = assay: Oil Red O staining of eyelid cryosections for lipids; type: in vivo, C57BL/6 mice; settings: old mice, versus DMSO
Procedure: as §1, §3
Eyelid tissues were embedded in OCT and sectioned at 8 μm of thickness. Frozen sections were placed in 60% 2-propanol for 1 minute, stained with filtered ORO solution for 15 minutes, rinsed with PBS and counterstained with hematoxylin.^4

[5] = Measurement of tear volume (phenol red thread tear test); type: in vivo, C57BL/6 mice; settings: old mice, weekly subconjunctival injection up to 4 weeks; weeks 1, 2, 3, 4 and 8
Procedure: as §1, §2
The amount of tears was measured with the phenol red thread tear test using ZONE-QUICK cotton threads (Yokota, Tokyo, Japan).^19,20 After general anesthesia, the lower eyelid was pulled down slightly, and a 1 mm portion of the thread was placed on the palpebral conjunctiva at the point ⅓ of the distance from the lateral canthus. […] The red portion of the thread is measured in millimeters.

## 44-mer: 44-mer motif of PEDF, amino acid positions Val78-Thr121 (VLLSPLSVATALSALSLGAEQRTESIIHRALYYDLISSPDIHGT; UniProt P36955 78-121, looked up, fragment)
Limbus stem cells
  stem cells proliferation and regeneration in the limbus: induce stem cells proliferation and regeneration

## SLGAEHRTESVIHR (listed as Mus musculus) [mo-14mer, mouse variant of the 14-mer]
[1]
  activities of 29-mer variants: active

## SLGAEHRTESVIHRALYYDLITNPDIHST (listed as Mus musculus) [mo-29mer, mouse variant of the 29-mer]
[1]
  activities of 29-mer variants: active

## SLGAEQRTESIIHRALYYDLISSPDIHGT (listed as Homo sapiens) [29-mer, PEDF-derived short peptide, human PEDF residues 93-121 (Ser93-Thr121)]
Meibomian gland
  MG acinar size, whole mount ORO, upper eyelids: 2347530±34986.4 pixels/eyelid
[2]
  TBUT versus control: significantly longer
[3]
  proliferation of myogenic stem cells and C2C12 myoblasts: induce proliferation
[4]
  number of p63-expressing cells per acinus: 10.98±2.75
Acinar progenitor cells; old mice
  BrdU-positive cells per acinus: 1.67±0.58 cells/per acinus
  BrdU-positive cells in acinar base (cell proliferation): 4.29±1.19
Acinar progenitor cells; young mice
  BrdU-positive cells per acinus: 2.35±0.73 cells/per acinus
  BrdU-positive cells in acinar base (cell proliferation): 6.70±1.35
meibocytes
  ORO staining within the cytoplasm of differentiating meibocytes, cross sections: more overall ORO staining
[5]
  Tear secretion test versus control: invariant
